Test results published in ChEMBL document CHEMBL2010711, “Synthesis and comparative evaluation of 4-oxa- and 4-aza-podophyllotoxins as antiproliferative microtubule destabilizing agents” (Bioorg Med Chem Lett, 2012).
The source made the active and inactive calls.

Experiments:
MDA-MB-435 = experiment: Cytotoxicity against human MDA-MB-435 cells after 48 hrs by trypan blue dye exclusion assay; type: functional; conditions: MDA-MB-435, 48 h
SK-MEL-2 = experiment: Cytotoxicity against human SK-MEL-2 cells after 48 hrs by trypan blue dye exclusion assay; type: functional; conditions: SK-MEL-2, 48 h
SK-MEL-28 = experiment: Cytotoxicity against human SK-MEL-28 cells after 48 hrs by trypan blue dye exclusion assay; type: functional; conditions: SK-MEL-28, 48 h
SK-MEL-5 = experiment: Cytotoxicity against human SK-MEL-5 cells after 48 hrs by trypan blue dye exclusion assay; type: functional; conditions: SK-MEL-5, 48 h
UACC-257 = experiment: Cytotoxicity against human UACC257 cells after 48 hrs by trypan blue dye exclusion assay; type: functional; conditions: UACC-257, 48 h
UACC-62 = experiment: Cytotoxicity against human UACC62 cells after 48 hrs by trypan blue dye exclusion assay; type: functional; conditions: UACC-62, 48 h
IGROV-1 = experiment: Cytotoxicity against human IGROV1 cells after 48 hrs by trypan blue dye exclusion assay; type: functional; conditions: IGROV-1, 48 h
OVCAR-3 = experiment: Cytotoxicity against human OVCAR3 cells after 48 hrs by trypan blue dye exclusion assay; type: functional; conditions: OVCAR-3, 48 h
OVCAR-4 = experiment: Cytotoxicity against human OVCAR4 cells after 48 hrs by trypan blue dye exclusion assay; type: functional; conditions: OVCAR-4, 48 h
OVCAR-5 = experiment: Cytotoxicity against human OVCAR5 cells after 48 hrs by trypan blue dye exclusion assay; type: functional; conditions: OVCAR-5, 48 h
OVCAR-8 = experiment: Cytotoxicity against human OVCAR8 cells after 48 hrs by trypan blue dye exclusion assay; type: functional; conditions: OVCAR-8, 48 h
NCI/ADR-RES = experiment: Cytotoxicity against human NCI/ADR-RES cells after 48 hrs by trypan blue dye exclusion assay; type: functional
SK-OV-3 = experiment: Cytotoxicity against human SKOV3 cells after 48 hrs by trypan blue dye exclusion assay; type: functional; conditions: SK-OV-3, 48 h
786-0 = experiment: Cytotoxicity against human 786-0 cells after 48 hrs by trypan blue dye exclusion assay; type: functional; conditions: 786-0, 48 h
A498 = experiment: Cytotoxicity against human A498 cells after 48 hrs by trypan blue dye exclusion assay; type: functional; conditions: A498, 48 h
ACHN = experiment: Cytotoxicity against human ACHN cells after 48 hrs by trypan blue dye exclusion assay; type: functional
CAKI-1 = experiment: Cytotoxicity against human CAKI-1 cells after 48 hrs by trypan blue dye exclusion assay; type: functional; conditions: CAKI-1, 48 h
RXF 393 = experiment: Cytotoxicity against human RXF393 cells after 48 hrs by trypan blue dye exclusion assay; type: functional; conditions: RXF 393, 48 h
SN12C = experiment: Cytotoxicity against human SN12C cells after 48 hrs by trypan blue dye exclusion assay; type: functional
TK-10 = experiment: Cytotoxicity against human TK10 cells after 48 hrs by trypan blue dye exclusion assay; type: functional; conditions: TK-10, 48 h
UO-31 = experiment: Cytotoxicity against human UO31 cells after 48 hrs by trypan blue dye exclusion assay; type: functional; conditions: UO-31, 48 h
PC-3 = experiment: Cytotoxicity against human PC3 cells after 48 hrs by trypan blue dye exclusion assay; type: functional; conditions: PC-3, 48 h
DU-145 = experiment: Cytotoxicity against human DU145 cells after 48 hrs by trypan blue dye exclusion assay; type: functional; conditions: DU-145, 48 h
MCF7 = experiment: Cytotoxicity against human MCF7 cells after 48 hrs by trypan blue dye exclusion assay; type: functional; conditions: MCF7, 48 h
MDA-MB-231 = experiment: Cytotoxicity against human MDA-MB-231 cells after 48 hrs by trypan blue dye exclusion assay; type: functional; conditions: MDA-MB-231, 48 h
[1] = Cytotoxicity against human Hs 578T cells after 48 hrs by trypan blue dye exclusion assay; type: functional
BT-549 = experiment: Cytotoxicity against human BT549 cells after 48 hrs by trypan blue dye exclusion assay; type: functional; conditions: BT-549, 48 h
T47D = experiment: Cytotoxicity against human T47D cells after 48 hrs by trypan blue dye exclusion assay; type: functional
MDA-MB-468 = experiment: Cytotoxicity against human MDA-MB-468 cells after 48 hrs by trypan blue dye exclusion assay; type: functional; conditions: MDA-MB-468, 48 h
Paracentrotus lividus [2] = experiment: Antimitotic activity against Paracentrotus lividus embryo assessed as cleavage alteration at 2 fold less effective threshold concentration after 2.5 to 6 hrs; type: functional, organism-based
Paracentrotus lividus [3] = experiment: Antimitotic activity against Paracentrotus lividus embryo assessed as cleavage arrest at 2 fold less effective threshold concentration after 2.5 to 6 hrs; type: functional, organism-based
Paracentrotus lividus [4] = experiment: Microtubule destabilizing activity in Paracentrotus lividus embryo assessed as embryo spinning at 2 fold less effective threshold concentration after 15 mins to 20 hrs; type: functional, organism-based

`COc1ccc2c(c1)NC1=C(C(=O)OC1)C2c1cc(OC)c2c(c1)OCO2` (stereo not drawn) gave a GI50 (MDA-MB-435) of under 10 nM, a GI50 (SK-MEL-2) of 26.3 nM and a GI50 (SK-MEL-28) of 56.4 nM. The GI50 (SK-MEL-5) was 10.8 nM, the GI50 (UACC-257) was 51.2 nM and the GI50 (UACC-62) was under 10 nM. The GI50 (IGROV-1) was 25 nM, the GI50 (OVCAR-3) was under 10 nM and the TGI (OVCAR-3) was 12.2 nM. It also gave a GI50 (OVCAR-4) of 19.5 nM, a GI50 (OVCAR-5) of 81.7 nM and a GI50 (OVCAR-8) of under 10 nM. For the same compound, the GI50 (NCI/ADR-RES) was under 10 nM, the GI50 (SK-OV-3) was 14.6 nM and the GI50 (786-0) was 24.9 nM. For the same compound, the GI50 (A498) was under 10 nM, the GI50 (ACHN) was 56.7 nM and the GI50 (CAKI-1) was 50.2 nM. The GI50 (RXF 393) was under 10 nM, the GI50 (SN12C) was 19.9 nM and the GI50 (TK-10) was 60.7 nM. It also gave a GI50 (UO-31) of 30 nM, a GI50 (PC-3) of 19.9 nM and a GI50 (DU-145) of 19 nM. For the same compound, the GI50 (MCF7) was under 10 nM, the GI50 (MDA-MB-231) was 26.8 nM and the GI50 [1] was under 10 nM. It also gave a GI50 (BT-549) of 46 nM, a GI50 (T47D) of over 100000 nM and a GI50 (MDA-MB-468) of under 10 nM. The Activity (Paracentrotus lividus [2]) was “inactive”, the Activity (Paracentrotus lividus [3]) was “inactive” and the Activity (Paracentrotus lividus [4]) was “inactive”.
